Assay results taken from the NIST ThermoML archive (doi:10.1016/j.jct.2004.06.008).
Numbers after ± are expanded uncertainties.

Assay: molar heat capacity at constant pressure
Settings: 101.33 kPa, Crystal, Vacuum adiabatic calorimetry

[Cu] [copper]
Settings | molar heat capacity at constant pressure [J/K/mol]
6.56 K | 0.0232 ± 0.0002
7.16 K | 0.0255 ± 0.0002
7.85 K | 0.0323 ± 0.0002
8.64 K | 0.04 ± 0.0002
9.55 K | 0.0534 ± 0.0003
10.51 K | 0.0663 ± 0.0004
11.42 K | 0.0839 ± 0.0005
12.43 K | 0.1121 ± 0.0005
13.56 K | 0.137 ± 0.0007
14.81 K | 0.1926 ± 0.0008
16.17 K | 0.2314 ± 0.0009
17.69 K | 0.304 ± 0.0013
19.34 K | 0.4106 ± 0.0016
20.19 K | 0.4727 ± 0.0019
21.13 K | 0.5555 ± 0.0021
21.94 K | 0.6242 ± 0.0022
23.08 K | 0.7448 ± 0.0026
23.76 K | 0.8181 ± 0.0028
25.79 K | 1.058 ± 0.0034
28.01 K | 1.37 ± 0.0041
30.46 K | 1.761 ± 0.0049
33.17 K | 2.259 ± 0.006
36.05 K | 2.853 ± 0.0071
37.57 K | 3.173 ± 0.0077
39.01 K | 3.497 ± 0.0084
40.74 K | 3.898 ± 0.0091
44.1 K | 4.708 ± 0.011
45.89 K | 5.146 ± 0.011
47.52 K | 5.549 ± 0.012
49.38 K | 6.025 ± 0.013
52.99 K | 6.933 ± 0.015
54.47 K | 7.281 ± 0.015
56.65 K | 7.837 ± 0.016
56.87 K | 7.882 ± 0.017
59.76 K | 8.582 ± 0.018
62.64 K | 9.272 ± 0.019
66.47 K | 10.14 ± 0.021
71.22 K | 11.16 ± 0.023
75.97 K | 12.13 ± 0.025
80.79 K | 13.04 ± 0.026
85.65 K | 13.89 ± 0.028
90.55 K | 14.68 ± 0.03
95.49 K | 15.41 ± 0.031
100.46 K | 16.08 ± 0.032
105.45 K | 16.71 ± 0.034
110.46 K | 17.28 ± 0.035
115.49 K | 17.81 ± 0.036
120.54 K | 18.3 ± 0.037
125.61 K | 18.75 ± 0.038
130.68 K | 19.16 ± 0.038
134.74 K | 19.47 ± 0.039
135.77 K | 19.54 ± 0.039
139.84 K | 19.82 ± 0.04
140.87 K | 19.89 ± 0.04
144.94 K | 20.16 ± 0.04
150.05 K | 20.46 ± 0.041
155.17 K | 20.75 ± 0.042
160.3 K | 21.02 ± 0.042
165.43 K | 21.27 ± 0.043
170.57 K | 21.5 ± 0.043
175.7 K | 21.72 ± 0.043
180.85 K | 21.92 ± 0.044
186 K | 22.11 ± 0.044
191.15 K | 22.28 ± 0.045
193.33 K | 22.35 ± 0.045
196.3 K | 22.45 ± 0.045
198.48 K | 22.51 ± 0.045
201.46 K | 22.6 ± 0.045
203.64 K | 22.66 ± 0.045
206.62 K | 22.74 ± 0.045
208.8 K | 22.79 ± 0.046
213.96 K | 22.93 ± 0.046
219.13 K | 23.06 ± 0.046
224.29 K | 23.19 ± 0.046
229.45 K | 23.31 ± 0.047
232.56 K | 23.38 ± 0.047
234.62 K | 23.41 ± 0.047
237.73 K | 23.49 ± 0.047
239.79 K | 23.53 ± 0.047
242.89 K | 23.59 ± 0.047
248.06 K | 23.68 ± 0.047
253.24 K | 23.77 ± 0.048
258.41 K | 23.86 ± 0.048
263.59 K | 23.95 ± 0.048
268.77 K | 24.02 ± 0.048
273.95 K | 24.09 ± 0.048
279.13 K | 24.16 ± 0.048
284.31 K | 24.23 ± 0.048
289.49 K | 24.31 ± 0.049
294.67 K | 24.38 ± 0.049
297.38 K | 24.41 ± 0.049
299.85 K | 24.44 ± 0.049
302.55 K | 24.49 ± 0.049
307.73 K | 24.55 ± 0.049
312.92 K | 24.61 ± 0.049
318.1 K | 24.67 ± 0.049
323.28 K | 24.73 ± 0.049
325.89 K | 24.75 ± 0.05
328.47 K | 24.78 ± 0.05
331.06 K | 24.8 ± 0.05
336.25 K | 24.85 ± 0.05
341.44 K | 24.91 ± 0.05
346.62 K | 24.95 ± 0.05
351.8 K | 24.99 ± 0.05
356.99 K | 25.03 ± 0.05
363.06 K | 25.07 ± 0.05
368.04 K | 25.11 ± 0.05
373.02 K | 25.17 ± 0.05
378 K | 25.25 ± 0.051
382.98 K | 25.25 ± 0.05
387.96 K | 25.3 ± 0.051
392.94 K | 25.35 ± 0.051
397.62 K | 25.41 ± 0.051
